From US20240101552A1, “CARBONYL HETEROCYCLIC COMPOUND AND APPLICATION THEREOF” (SHANGHAI PHARMACEUTICALS HOLDING CO., LTD., priority 2020, published 2024)
“Also recorded” adds a separate entry of the source.

Assays:
[1] = tested on: TNBS-induced colitis in mice; assay: Alleviating effect on TNBS-induced colitis in mice, study (II); assay type: in vivo, Balb/c mice; settings: for colon weight (FIG. 18B) / weight-to-length ratio of colon (FIG. 18C): L compounds PO 50 mpk BID, Mesalazine PO 100 mpk QD
Protocol: (§1) Sixty female Balb/c mice, weighing about 18 g and 8-10 weeks old, were randomly divided into twelve groups, including eleven model groups and one Sham control group. The administration was started on Day 1 and ended on Day 7, with the compounds prepared once a day, as detailed in Table 1 for route and frequency of administration, and Table 2 for compound preparation and volume of administration.
(§2) Balb/c mice weighing about 18-20 g were anesthetized with 0.25 mL of 1.25% Avertin on Day 0. The mice in the model group were perfused rectally with 150 μL of 1% TNBS solution (ethanol with a final concentration of 50%). The mice in the Sham control group were perfused rectally with 50% ethanol on Day 0.
(§3) The mouse colon was photographed, measured for the length, and weighed after the contents were removed. The colon of each mouse was then cut longitudinally at ½, rolled in a uniform direction by Swiss-roll method and fixed in neutral paraformaldehyde.
(§4) The DAI scoring consisted of 3 parts, taking the method of mixed scoring of weight change, stool and blood in stool, and the specific DAI scoring criteria were shown in Table 3. Throughout the experiment, the DAI scoring of all mice was done by the same person to ensure the scale consistency of the scoring.
The experimental data were statistically analyzed by ANOVA method, and data of other groups and the Vehicle (PO, QD) group were analyzed by Dunnett's test to compare data of multiple groups, *p<0.05, **p<0.01, ***p<0.005, ****p<0.0001

LANCL2 = LANCL2 (Homo sapiens (Human), UniProt Q9NS86); assay: SPR (BIACORE S200) kinetic determination of LANCL2-small molecule interactions; assay type: binding
[2] = Solubility remark in the LANCL2 binding table (footnote a); assay type: physicochemical; set-up: key: ª: “a” indicated poor solubility
[3] = tested on: TNBS-induced colitis in mice; assay: Alleviating effect on TNBS-induced enteritis (colitis) in mice, study (I); assay type: in vivo, Balb/c mice; settings: vs Vehicle group, Mesalamine PO 100 mpk QD
Protocol: Preparation method of L56: an appropriate amount of L56 compound was weighed into a brown sample vial, added with a certain volume of solvent 95% (20% HP-β-CD)+5% (10% sodium benzoate), the mixture was vortexed for 1 minute, and dissolved ultrasonically. The compound was prepared once a day.
Preparation method of L30: an appropriate amount of L30 compound was weighed into a brown sample vial, added with a certain volume of solvent 95% (20% HP-β-CD)+5% (10% sodium benzoate), the mixture was vortexed for 1 minute, and dissolved ultrasonically. The compound was prepared once a day.
Preparation method of Mesa (Mesalamine): an appropriate amount of Mesalamine (Selleck) was weighed into a brown sample vial, added with a certain volume of solvent 0.5% CMC-Na, the mixture was vortexed for 1 minute, and dissolved ultrasonically. The compound was prepared once a day.
as §1, with “Fifty-six” for “Sixty”, “seven” for “twelve”, “six” for “eleven”
as §2, §3, §4
The histopathological scoring was performed by a professional pathologist on the clinical pathology platform in a double-blind manner.
The experimental data were statistically analyzed by ANOVA method, positive drug Mesalamine (PO, 100 mpk, QD) group, L56 (PO, 50 mpk, BID) group, L30 (PO, 50 mpk, BID) group, *p<0.05, **p<0.01, ***p<0.005, ****p<0.0001

[4] = vs Vehicle group, PO, 50 mpk, BID

Chain of LANCL2 (Q9NS86 whole entry, species assumed): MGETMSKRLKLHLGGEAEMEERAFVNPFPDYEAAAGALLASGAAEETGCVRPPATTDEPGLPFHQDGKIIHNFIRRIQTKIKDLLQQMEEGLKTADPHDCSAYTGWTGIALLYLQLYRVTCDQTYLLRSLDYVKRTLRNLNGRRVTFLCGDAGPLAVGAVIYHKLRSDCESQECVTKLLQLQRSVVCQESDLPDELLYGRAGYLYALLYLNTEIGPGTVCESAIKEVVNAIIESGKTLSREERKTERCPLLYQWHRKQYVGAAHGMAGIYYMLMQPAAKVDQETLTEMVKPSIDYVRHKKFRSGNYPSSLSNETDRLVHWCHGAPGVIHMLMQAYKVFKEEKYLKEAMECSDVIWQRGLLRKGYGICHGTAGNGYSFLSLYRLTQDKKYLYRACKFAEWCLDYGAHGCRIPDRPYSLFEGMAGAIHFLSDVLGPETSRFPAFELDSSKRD

| SMILES | alleviation of TNBS-induced colitis / inflammation (conclusion) ([1]; PO, 50 mpk, BID) | alleviation of symptoms of diarrhea and blood in stool ([1]; PO, 50 mpk, BID) | alleviation of weight loss caused by TNBS-induced colitis (body weight changes and DAI scores combined) ([1]; PO, 50 mpk, BID) | colon weight (FIG. 18B) ([1]; vs Vehicle group) | weight-to-length ratio of colon (FIG. 18C) ([1]; vs Vehicle group) | DAI scores (FIG. 16B) [1, 4] | blood in stool score (FIG. 17B) [1, 4] | colon length (FIG. 18A) [1, 4] | diarrhea score (FIG. 17A) [1, 4] | weight loss of the mice (FIG. 16A) [1, 4] | binding activity compared with positive reference compound BT-11 (LANCL2) | Kd (LANCL2; immobilized LANCL2, 1:1 binding model, pH 6.5, 25° C.) [µM] | Rmax (RU) (LANCL2; maximum binding force) | solubility (footnote a) [2] | colon tissue pathological scores (HE staining) ([3]; L56 PO 50 mpk BID) | DAI scores (FIG. 13B) ([3]; L compounds PO 50 mpk BID) | colon length (FIG. 14B) ([3]; L compounds PO 50 mpk BID) | colon weight (FIG. 14C) ([3]; L compounds PO 50 mpk BID) | weight loss of the mice (FIG. 13A) ([3]; L compounds PO 50 mpk BID) | weight-to-length ratio of colon (FIG. 14A) ([3]; L compounds PO 50 mpk BID) |
| --- | --- | --- | --- | --- | --- | --- | --- | --- | --- | --- | --- | --- | --- | --- | --- | --- | --- | --- | --- | --- |
| O=C(NC1C2CN(C(=O)c3cccc(-c4nc5ccccc5[nH]4)n3)CC21)c1cccc(-c2nc3ccccc3[nH]2)n1 [Embodiment L-11, N-(3-(6-(1H-benzo[d]imidazol-2-yl)picolinoyl)-3-azabicyclo[3.1.0]hexan-6-yl)-6-(1H-benzo[d]imidazol-2-yl)pyridinecarboxamide] | could significantly alleviate the occurrence of inflammation in mice with TNBS-induced colitis; also recorded: could effectively alleviate TNBS-induced colitis in mice | could effectively alleviate the symptoms of diarrhea and blood in stool in TNBS model mice | could effectively alleviate the weight loss in mice caused by TNBS-induced colitis | less colon weight | significantly lower | significantly lower | significantly slowed down | significantly more colon length | significantly slowed down | significantly slowed down | better binding activities than the positive reference compound BT-11 | 3.67 | 4.2 | – | – | – | – | – | – | – |
| O=C(c1cccc(-c2cn3ccccc3n2)c1)N1CCN(C(=O)c2cccc(-c3cn4ccccc4n3)c2)CC1 [Embodiment L-36, Piperazine-1,4-diylbis((3-(imidazol[1,2-a]pyridin-2-yl)phenyl)methanone)] | – | – | – | – | – | – | – | – | – | – | – | – | – | ª | – | – | – | – | – | – |
| Nc1ccc(O)c(C(=O)O)c1 [Mesalamine] | – | – | – | less colon weight | significantly lower | – | – | – | – | – | – | – | – | – | lower colon tissue pathological scores with a statistically significant difference | significantly lower | significantly more colon length | less colon weight | significantly slowed down | significantly lower |
